Test results reported in patent US20230210797A1, “PREVENTING AND TREATING HYPOGLYCEMIA” (DIAMYD MEDICAL AB, priority 2019, published 2023).

What was measured:
epinephrine = test: Hypoglycemic clamp: plasma epinephrine levels; assay type: in vivo, human; conditions: for epinephrine levels, Change from baseline, Mean (SD) / epinephrine levels, Change from baseline, Median (Min, Max) / epinephrine levels, Observed value, Mean (SD) / epinephrine levels, Observed value, Median (Min, Max): C-peptide undetectable
Experimental: In order to evaluate the counterregulatory hormone response to hypoglycemia, a hypoglycemic clamp will be performed. The Hypoglycemic Clamp must be performed according to the instructions in the Operations Manual. (Appendix 3)
The patient should: • Come to the study site following an overnight fast (>10 hours), i.e. the patient may not eat but is permitted to drink water • Not have taken the Remygen and, if applicable, Alprazolam dose in the morning • Not take short acting/direct acting insulin within 6 hours before the investigation. • The patient is allowed to take base-insulin day/night before, but not in the morning before the investigation.
Patients with CSII (insulin pump) must continue with their basal dose insulin, but not add bolus dose during the last 6 hours before the investigation.
If a patient has a blood sugar level <4 mmol/L in the morning of the scheduled visit, the patient is allowed to take dextrose tablets and then come to the study site. The patient is allowed to perform the investigation if the blood sugar level is >4 mmol/L.
In the dose-escalation part of the study, the patient will take study drug 30 min prior to start of the hypoglycemic clamp. In the main study, the study drug will instead be taken after finalization of the hypoglycemic clamp. Baseline blood samples will be obtained for glucose, glucagon, epinephrine, norepinephrine, growth hormone and cortisol. The clamp will then be initiated by an intravenous insulin infusion at a rate of 2 mU×kg^−1×min^−1. Glucose 100 mg/ml will then be administered in variable infusion rates to clamp the blood glucose concentration at 5.5 mmol/land then at 2.5 mmol/land kept stable for 30 min. Blood glucose will be evaluated repeatedly in order to find the optimal glucose infusion rate. Blood sampling to determined levels of counterregulatory hormones as described above will be performed at each of these target levels when a stable glucose concentration has been reached. The insulin infusion will thereafter be terminated and the patient is allowed to eat and will be observed until normoglycemia is achieved. If necessary, additional glucose administration will be given to allow blood glucose concentrations to normalize.
Plasma glucose was first lowered to normoglycemic levels (5.5 mmol/L) and hormone levels monitored, and then to hypoglycemic levels (2.5 mmol/L) and hormone levels monitored. Difference was calculated as a measurement of the response to hypoglycemia.

[1] = Time spent below, within and above normal blood glucose range (4-10 mmol/L), FreeStyle Libre Pro FGM; assay type: in vivo, human; conditions: for Time above range, Mean / Time above range, Median / Time below range, Mean / Time below range, Median / Time within range, Mean / Time within range, Median: normal blood glucose range 4-10 mmol/L, n=6
Source text: The FreeStyle Libre Pro FGM System is a professional glucose monitoring device indicated for detecting trends and tracking patterns and glucose level excursions above or below the desired range, facilitating therapy adjustments in persons with diabetes. Readings from the FreeStyle Libre Pro FGM System are not made available directly to patients in real time. The FreeStyle Libre Pro FGM System aids in the detection of episodes of hyperglycemia and hypoglycemia, facilitating therapy adjustments.
Patients will receive the Freestyle Libre Pro at the site at Visit 1 and Visit 2 in the Safety and Dose Escalation study and will be instructed how to return the FreeStyle Libre to the site after each of the testing period. For the main study patients will receive the Freestyle Libre Pro at the site during Visit 1 (all Treatment arms), Visit 7 (Treatment arm 1), Visit 8 (Treatment arm 2 and 3) and will be instructed how to return the FreeStyle Libre to the site after each of the testing period. However, for Visit 9 (Treatment arm 1) and Visit 10 (Treatment arm 2 and 3) patients will be instructed to come to the site 14 days before the visit to receive the Freestyle Libre and have it activated. The patients will then return the Freestyle Libre at Visit 9 or Visit 10, depending on treatment arm. The timing of the distribution of the glucose monitoring system and assessments is described in Above.
Blood glucose levels for all six patients in the dose escalation part of the study was measured during certain time intervals to determine time spent in, above, and below normal blood glucose range (4-10 mmol/L).

[2] = Visit 5, 200 mg GABA per day, Event 2.5 mmol/L
[3] = Visit 5, 200 mg GABA per day, Event 5.5 mmol/L
[4] = Visit 5, 200 mg GABA per day, Event Baseline
[5] = Visit 5, 200 mg GABA per day, Event Diff 2.5-5.5 mmol/L
[6] = Visit 7, 600 mg GABA per day, Event 2.5 mmol/L
[7] = Visit 7, 600 mg GABA per day, Event 5.5 mmol/L
[8] = Visit 7, 600 mg GABA per day, Event Baseline
[9] = Visit 7, 600 mg GABA per day, Event Diff 2.5-5.5 mmol/L
[10] = Visit 9, 1200 mg GABA per day, Event 2.5 mmol/L
[11] = Visit 9, 1200 mg GABA per day, Event 5.5 mmol/L
[12] = Visit 9, 1200 mg GABA per day, Event Baseline
[13] = Visit 9, 1200 mg GABA per day, Event Diff 2.5-5.5 mmol/L
[14] = normal range 4-10 mmol/L, all six patients of dose escalation part

## NCCCC(=O)O [GABA, Gamma-amino butyric acid]
epinephrine; [2]
  epinephrine levels, Change from baseline, Mean (SD): 0.800 (0.720) nmol/L
  epinephrine levels, Change from baseline, Median (Min, Max): 0.400 (0.30, 2.00) nmol/L
  epinephrine levels, Observed value, Mean (SD): 1.640 (1.014) nmol/L
  epinephrine levels, Observed value, Median (Min, Max): 1.200 (0.50, 2.90) nmol/L
epinephrine; [3]
  epinephrine levels, Change from baseline, Mean (SD): 0.000 (0.000) nmol/L
  epinephrine levels, Change from baseline, Median (Min, Max): 0.000 (0.00, 0.00) nmol/L
  epinephrine levels, Observed value, Mean (SD): 0.150 (0.000) nmol/L
  epinephrine levels, Observed value, Median (Min, Max): 0.150 (0.15, 0.15) nmol/L
epinephrine; [4]
  epinephrine levels, Change from baseline, Mean (SD): 0.000 (0.000) nmol/L
  epinephrine levels, Change from baseline, Median (Min, Max): 0.000 (0.00, 0.00) nmol/L
  epinephrine levels, Observed value, Mean (SD): 0.150 (0.000) nmol/L
  epinephrine levels, Observed value, Median (Min, Max): 0.150 (0.15, 0.15) nmol/L
epinephrine; [5]
  epinephrine levels, Change from baseline, Mean (SD): 0.800 (0.720) nmol/L
  epinephrine levels, Change from baseline, Median (Min, Max): 0.400 (0.30, 2.00) nmol/L
  epinephrine levels, Observed value, Mean (SD): 1.490 (1.014) nmol/L
  epinephrine levels, Observed value, Median (Min, Max): 1.050 (0.35, 2.75) nmol/L
epinephrine; [6]
  epinephrine levels, Change from baseline, Mean (SD): 0.560 (0.585) nmol/L
  epinephrine levels, Change from baseline, Median (Min, Max): 0.800 (−0.40, 1.10) nmol/L
  epinephrine levels, Observed value, Mean (SD): 1.400 (0.579) nmol/L
  epinephrine levels, Observed value, Median (Min, Max): 1.700 (0.60, 2.00) nmol/L
epinephrine; [7]
  epinephrine levels, Change from baseline, Median (Min, Max): 0.000 (0.00, 0.25) nmol/L
  epinephrine levels, Observed value, Median (Min, Max): 0.150 (0.15, 0.40) nmol/L
epinephrine; [8]
  epinephrine levels, Change from baseline, Mean (SD): 0.000 (0.000) nmol/L
  epinephrine levels, Change from baseline, Median (Min, Max): 0.000 (0.00, 0.00) nmol/L
  epinephrine levels, Observed value, Mean (SD): 0.150 (0.000) nmol/L
  epinephrine levels, Observed value, Median (Min, Max): 0.150 (0.15, 0.15) nmol/L
epinephrine; [9]
  epinephrine levels, Change from baseline, Mean (SD): 0.510 (0.564) nmol/L
  epinephrine levels, Change from baseline, Median (Min, Max): 0.600 (−0.40, 1.10) nmol/L
  epinephrine levels, Observed value, Mean (SD): 1.200 (0.630) nmol/L
epinephrine; [10]
  epinephrine levels, Change from baseline, Mean (SD): 0.670 (0.709) nmol/L
  epinephrine levels, Change from baseline, Median (Min, Max): 0.500 (0.00, 1.70) nmol/L
  epinephrine levels, Observed value, Mean (SD): 1.510 (1.070) nmol/L
  epinephrine levels, Observed value, Median (Min, Max): 1.200 (0.15, 2.60) nmol/L
epinephrine; [11]
  epinephrine levels, Change from baseline, Mean (SD): 0.000 (0.000) nmol/L
  epinephrine levels, Change from baseline, Median (Min, Max): 0.000 (0.00, 0.00) nmol/L
  epinephrine levels, Observed value, Mean (SD): 0.150 (0.000) nmol/L
  epinephrine levels, Observed value, Median (Min, Max): 0.150 (0.15, 0.15) nmol/L
epinephrine; [12]
  epinephrine levels, Change from baseline, Mean (SD): 0.000 (0.000) nmol/L
  epinephrine levels, Change from baseline, Median (Min, Max): 0.000 (0.00, 0.00) nmol/L
  epinephrine levels, Observed value, Mean (SD): 0.150 (0.000) nmol/L
  epinephrine levels, Observed value, Median (Min, Max): 0.150 (0.15, 0.15) nmol/L
epinephrine; [13]
  epinephrine levels, Change from baseline, Mean (SD): 0.670 (0.709) nmol/L
  epinephrine levels, Change from baseline, Median (Min, Max): 0.500 (0.00, 1.70) nmol/L
  epinephrine levels, Observed value, Median (Min, Max): 1.050 (0.00, 2.45) nmol/L
epinephrine; change in levels when clamping to 2.5 mmol/L from 5.5 mmol/L
  Counter regulatory response of Epinephrine, effect of GABA treatment: increased
[1]; Day 3 to 4
  Time above range, Mean: 28.7%
  Time above range, Median: 28.8%
  Time below range, Mean: 14.8%
  Time below range, Median: 14.3%
  Time within range, Mean: 56.6%
  Time within range, Median: 62.0%
[1]; Day 6 to 7
  Time above range, Mean: 37.7%
  Time above range, Median: 36.5%
  Time below range, Mean: 4.8%
  Time below range, Median: 4.0%
  Time within range, Mean: 57.6%
  Time within range, Median: 59.5%
[1]; Day 9
  Time above range, Mean: 39.5%
  Time above range, Median: 50.0%
  Time below range, Mean: 5.5%
  Time below range, Median: 2.5%
  Time within range, Mean: 55.0%
  Time within range, Median: 47.0%
[1]; [14]
  Time above normal blood glucose range, effect of GABA treatment: decreased
  Time below normal blood glucose range, effect of GABA treatment: decreased
  Time in normal blood glucose range, effect of GABA treatment: increased
